Patent US20150152469A1, “FLUORESCENT PROBE FOR HIGH-SENSITIVITY PANCREATIC FLUID DETECTION, AND METHOD FOR DETECTING PANCREATIC FLUID” (THE UNIVERSITY OF TOKYO, priority 2012, published 2015)

Tests used:
[1] = test system: chymotrypsin activities in pancreatic fluid; assay: In vitro fluorescence assay using human pancreatic fluid (gPhe-HMRG); type: biochemical
Procedure: (§1) gPhe-HMRG synthesized in Example 1 and gGlu-HMRG, which has a glutamic acid residue, synthesized in Example 2 were used as fluorescent probes to evaluate enzymatic activities of pancreatic fluid obtained from patients of pancreatic cancer or bile duct cancer. 1 μL of a fluorescent probe DMSO solution (1 mM) was dissolved in 180 μL of a 0.1 M sodium phosphate buffer (pH 7.4) at a final concentration of […], 20 μL of a pancreatic fluid was added thereto, and an enzymatic reaction was carried out at 37° C. for 30 minutes. In the case of gPhe-HMRG, a probe solution to which 57 BAEE units of trypsin (bovine pancreas-derived trypsin: SIGMA T1426-100MG) had been added was used to carry out the same enzymatic reaction. In addition, as to inhibitor treatments for comparisons, 1 μL of an aqueous solution (10 mM) of a γ-glutamyltransferase inhibitor (GGs-Top: Wako Pure Chemical 075-05471) in the case of gGlu-HMRG, and 1 μL of a DMSO solution (10 mM) of a chymotrypsin inhibitor (chymostatin: SIGMA C7268) in the case of gPhe-HMRG were each added to probe solutions. For excitation wavelengths and fluorescence wavelengths of a fluorescence measurement device, 478-492 nm and 523-548 nm, respectively, were used.

[2] = target: T1, chymotrypsin (a-chymotrypsin derived from bovine pancreas) (Bos taurus, UniProt P00766); assay: Fluorescence assay using chymotrypsin; type: biochemical; details: 2.4 μM probe, 4.6 U chymotrypsin
T1 construct: a-chymotrypsin derived from bovine pancreas; purchased SIGMA C4129-250MG; host or cells: bovine pancreas
Procedure: 3 μL of a 2.4 mM gPhe-HMRC dimethylsulfoxide (DMSO) solution was dissolved in 3 mL of 0.1 M sodium phosphate buffer (pH 7.4) at a final concentration of 2.4 μM, 4.6 U of chymotrypsin (a-chymotrypsin derived from bovine pancreas: SIGMA C4129-250MG) was added thereto to conduct an enzymatic reaction at 37° C. The excitation wavelength was set to 501 nm.

[3] = test system: chymotrypsin; assay: Fluorescence response to drain samples of pancreatic fluid, ascitic fluids and intestinal fluids (gPhe-HMRG, gPhe-HMRG-Try); type: biochemical, human
Procedure: (§2) Furthermore, response behaviors of the fluorescent probes against body fluids other than pancreatic fluid were compared by using drain samples which were collected from patients who received resectional surgeries of the pancreas. With respect to a total of 76 samples of pancreatic fluid, ascitic fluids and intestinal fluids which were collected from 18 patients, changes in fluorescent intensities were measured for gGlu-HMRG, gPhe-HMRG, and trypsin-added gPhe-HMRG (gPhe-HMRG-Try).
(§3) 180 μL of a probe solution (1.1 μM) was poured into each well of a 96-well microplate reader (SH-8000, Hitachi), and then, 20 μL of a collected sample was added thereto, followed by mixing them. The sample was incubated at 37° C., and fluorescence responses were measured after 5 minutes, 15 minutes and 30 minutes. Trypsin was added to gPhe-HMRG-Try at a final concentration of 0.525 μBTEE/μL. For an excitation wavelength and a fluorescence wavelength for the fluorescence measurement device, 490 nm and 520 nm, respectively, were used. The obtained results of fluorescence responses are shown as average values of respective samples in FIG. 5.

[4] = Fluorescent imaging of human pancreatic fluid; details: for visualization of adhesion points of the pancreatic fluids: 50 μM probe solution sprayed on paper (gPhe-HMRG with trypsin), after several minutes from spraying
Procedure: Fluorescent imaging of pancreatic fluids on an excised surface of the pancreas was carried out by using gPhe-HMRG and gGlu-HMRG as fluorescent probes. In consideration of, for example, cases where materials retaining pancreatic fluids, which are measurement subjects, are used during surgeries, wiping towels and filter paper for experiments (those having low background fluorescence from paper itself), which had been used in clinical practice, were used as the materials. For specific procedures, apiece of the pancreas immediately after being excised by surgical operations was collected, the wiping towel and filter paper was adhered to its excised surface, thereby adhering the pancreatic fluid thereto. Then, probe solutions of gPhe-HMRG (including trypsin) and gGlu-HMRG were sprayed to the adhered paper to start imaging. For the probe solutions, 10 μL of a DMSO solution (10 mM) of each probe was dissolved in 2 mL of RPMI 1640 medium (GINBO 11835) at a final concentration of 50 μM, and, for gPhe-HMRG, a solution obtained by adding trypsin (52.6 BTEE units) thereto was used. For an excitation filter and a fluorescence filter, long path filters of 435-480 nm and 490 nm, respectively, were used.

[5] = target: T2, γ-glutamyltransferase activity in a pancreatic fluid (Homo sapiens, UniProt P19440); assay: In vitro fluorescence assay using human pancreatic fluid (gGlu-HMRG); type: biochemical; details: 0.9 μM probe, 37° C., 30 minutes
T2 construct: pancreatic fluid obtained from patients of pancreatic cancer or bile duct cancer; from tissue; host or cells: pancreatic fluid from patients with pancreatic cancer or bile duct cancer
T2 sequence (P19440 1-380 limits assumed): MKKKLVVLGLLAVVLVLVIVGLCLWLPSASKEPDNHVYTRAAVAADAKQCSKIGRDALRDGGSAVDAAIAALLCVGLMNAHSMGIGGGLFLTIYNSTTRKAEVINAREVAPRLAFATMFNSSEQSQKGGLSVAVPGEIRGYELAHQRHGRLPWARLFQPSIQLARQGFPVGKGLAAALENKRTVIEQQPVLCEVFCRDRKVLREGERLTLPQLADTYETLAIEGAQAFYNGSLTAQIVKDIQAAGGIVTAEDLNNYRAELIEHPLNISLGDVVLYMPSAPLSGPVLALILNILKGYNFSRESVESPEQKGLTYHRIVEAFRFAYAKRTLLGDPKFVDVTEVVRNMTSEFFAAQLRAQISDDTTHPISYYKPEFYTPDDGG
T2 sequence (P19440 381-569 limits assumed): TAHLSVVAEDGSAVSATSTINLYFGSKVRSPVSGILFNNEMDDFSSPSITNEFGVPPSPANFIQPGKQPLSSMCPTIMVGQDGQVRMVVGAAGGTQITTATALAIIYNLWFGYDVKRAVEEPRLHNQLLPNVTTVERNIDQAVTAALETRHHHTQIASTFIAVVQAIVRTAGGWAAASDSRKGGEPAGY
Procedure: as §1

[6] = test system: γ-glutamyltransferase; assay: Fluorescence response to drain samples of pancreatic fluid, ascitic fluids and intestinal fluids (gGlu-HMRG); type: biochemical, human; details: drain samples from patients, 37° C., 5, 15, 30 minutes
Procedure: as §2, §3

Substance: glutamyl-phenylalanine hydroxymethyl rhodamine green [gPhe-HMRG]
- change in fluorescent intensity by addition of pancreatic fluid sample, trypsin included ([1]; 0.9 μM probe, 57 BAEE units trypsin, pancreatic fluid samples No. 1 to No. 5, 37° C., 30 minutes): remarkable increases in fluorescent intensities were observed in all the pancreatic fluid samples
- fluorescence response against chymotrypsinogen (precursor) ([1]; pancreatic fluid without trypsin addition): hardly showed a fluorescence response
- fluorescent intensity when chymostatin (chymotrypsin inhibitor) was added ([1]; pancreatic fluid, trypsin, chymostatin added, 37° C., 30 minutes): significantly decreased
- change in absorption by chymotrypsin addition ([2]; 0.1 M sodium phosphate buffer pH 7.4, 37° C.): significant increases
- change in fluorescent intensity by chymotrypsin addition ([2]; pH 7.4, 37° C., excitation 501 nm): significant increases
- time until fluorescent intensity reached saturation after chymotrypsin addition ([2]; fluorescence at 524 nm, 37° C.): about 600 seconds
- fluorescent response to body fluids, trypsin not added ([3]; pancreatic fluid, ascitic fluids, intestinal fluids from patients, 37° C., 5, 15, 30 minutes): significant fluorescent responses were not observed for all the body fluids
- fluorescence response compared with gGlu-HMRG ([3]; trypsin added): superior
- visualization of adhesion points of the pancreatic fluids [4]: successfully accomplished
- fluorescence response at adhesion points of body fluids other than the pancreatic fluid ([4]; 50 μM probe with trypsin sprayed on paper): any fluorescence response was not observed

Substance: γ-glutamyl hydroxymethyl rhodamine green [gGlu-HMRG]
- change in fluorescent intensity by addition of pancreatic fluid sample ([5]; 20 μL pancreatic fluid (samples No. 1 to No. 5), no inhibitor): increases in fluorescent intensities were observed in all pancreatic fluid samples
- fluorescent intensity when γ-glutamyltransferase-specific inhibitor (GGs-Top) was added ([5]; pancreatic fluid, inhibitor added): significantly decreased
- fluorescent response to ascitic fluids [6]: increases in fluorescent intensities were observed
- fluorescent response to pancreatic fluids [6]: an increase in fluorescent intensities was observed
- fluorescent response to intestinal fluids ([6]; compared with pancreatic fluids): a larger increase in fluorescent intensities was observed for intestinal fluids, than for the case of pancreatic fluids
- visualization of adhesion points of the pancreatic fluids [4]: successfully accomplished
